Patent EP1897937A1, “Method of culturing NPCs” (NeuroProgen GmbH Leipzig, priority 2006, dated 2008)

How the values were obtained:
Format in all cases: cell-based, human
[1] = test system: hmNPCs; assay: Long-term proliferation: number of living cells (hemocytometer, trypan blue exclusion)
Description: (§1) To determine long-term proliferation, hmNPCs were plated and expanded for 2 passages with or without addition of various agents (see below) to the custom expansion media containing the growth factors EGF and FGF2. Different fetal midbrain tissues were included in this study. At the end of the proliferation period, differentiation of hmNPCs was induced via replacement of expansion media with mitogen-free media containing 1% FCS, 5 µM forskoline (Sigma-Aldrich Chemie GmbH Munich, Germany), and 100 pg/ml IL-1β (Sigma). The differentiation and expansion media were supplemented with different drugs as appropriate. Prior to immunocytochemistry or protein extraction, hmNPCs were allowed to differentiate for 1 week. To determine short-term proliferation via Ki67 immunostaining, the cells were seeded into 24-well plates (70,000 cells/well) and left overnight to rest. P2 receptor agonists (ATP, UTP, ATP + UTP, ADP, ADPβS) were supplied daily for 5 consecutive days. Ki67/nestin double-positive cells were counted in 8 randomly selected fields of nucleotide-treated or untreated samples. For the assessment of MAPK phosphorylation the cells were kept free of mitogens for 2 d prior to addition of the MEK-inhibitor in expansion media. In addition, the MEK-inhibitor was added during the differentiation period 15 min before UTP administration.
(§2) UTP, UDP, ATP, ADP, ADPβS and suramin were purchased from Sigma (Sigma-Aldrich Chemie GmbH Munich, Germany). UTP and UDP were applied at different concentrations (1 µM, 10 µM, 100 µM), ATP at 100 µM, ADP at 100 µM, and ADPβS at100 µM. During expansion of the cells, the nucleotides were renewed once a week with every media change, unless otherwise stated. They were applied once at the beginning of the differentiation period. The P2 receptor antagonist suramin (10 µM) was added to expansion media 30 min prior to addition of UTP (100 µM). The stock solution of the MEK1/2 inhibitor U0126 (Promega Corporation, Mannheim, Germany) was prepared in dimethyl sulfoxide (DMSO) at a concentration of 10 mM. The stock solution was then diluted in 0.1 M PBS to obtain a concentration of 1 mM. MEK inhibitor (final concentration 10 µM) was added to mitogen-free expansion media, 15 min before UTP treatment (1 µM) of hmNPCs.
Cell counting of control (untreated) and treated hmNPCs was performed using a hemocytometer. Adherent cells were collected by detachment with accutase™ (PAA Laboratories, Pasching, Austria) for 10 min at 37°C. […] The number of total and trypan blue-positive cells was then determined by counting at least 300 cells per sample in a hemocytometer.

[2] = test system: hmNPCs; assay: Short-term proliferation: Ki67/nestin immunostaining; conditions: 100 µM; 5 subsequent days
Description: as §1, with “hmNPCs” left out, “μM” for “µM”, “administration. […] Cover-slips were mounted onto glass slides and examined under a fluorescence microscope (Zeiss Axiovert 200). Acquisition of the cells was performed using the Image-analysis software AxioVision 4 (Carl Zeiss AG, Jena, Germany). The following primary antibodies were used for immunofluorescence: rabbit polyclonal anti-β-tubulin III (anti-Tuj1) antibody, rabbit polyclonal anti-tyrosine hydroxylase antibody , mouse monoclonal anti-nestin antibody (Pharmingen, San Diego, CA, USA), rabbit polyclonal anti-Ki67 antigen antibody (Novocastra Laboratories Ltd, Newcastle upon Tyne, UK). Estimation of the TH-positive cell numbers was performed by counting of cells among approximately 1000 differentiated cells in total within 6 randomly selected fields.” for “administration.”

[3] = test system: hmNPCs; assay: Dopaminergic differentiation: counting of TH-positive cells by immunocytochemistry
Description: as §1, §2
Expanded or one week differentiated hmNPCs were fixed with 4% paraformaldehyde in PBS for 10 min at room temperature and washed with PBS, counterstained with the DNA-binding dye 4'-6-Diamidino-2-phenylindole (DAPI, 2 µg/ml in PBS) for 15 min at room temperature, washed twice in PBS followed by incubation in blocking buffer (10% FCS, 0.2% Triton-X 100 in PBS, pH 7.2) for 30 min at room temperature. After incubation with a primary antibody (over night at 4°C in blocking buffer), the cells were incubated with fluorescent secondary antibodies, Alexa Fluor® 488 conjugate or Alexa Fluor® 594 conjugate (Molecular Probes, Eugene, USA). Cover-slips were mounted onto glass slides and examined under a fluorescence microscope (Zeiss Axiovert 200). Acquisition of the cells was performed using the Image-analysis software AxioVision 4 (Carl Zeiss AG, Jena, Germany). The following primary antibodies were used for immunofluorescence: rabbit polyclonal anti-β-tubulin III (anti-Tuj1) antibody, rabbit polyclonal anti-tyrosine hydroxylase antibody , mouse monoclonal anti-nestin antibody (Pharmingen, San Diego, CA, USA), rabbit polyclonal anti-Ki67 antigen antibody (Novocastra Laboratories Ltd, Newcastle upon Tyne, UK). Estimation of the TH-positive cell numbers was performed by counting of cells among approximately 1000 differentiated cells in total within 6 randomly selected fields.

[4] = test system: hmNPCs; assay: Cell death / cell cycle assay (propidium iodide, FACS); conditions: for Sub-G1 / G0/G1 / G2/M / S: 48 h, 100 µM nucleotides, pretreated 30 minutes with 10 µM suramin or 100 µM PPADS where named; for G0/G1 / G2/M / S: mean ± SEM, n = 3; for block of the anti-proliferative effects of ATP, ADP and ADPβS: 30 minutes pretreatment, 10 µM suramin or 100 µM PPADS
Description: Untreated (control) and treated exponentially growing […] were prepared for cell cycle analysis by lysing cells in 300 μl of hypotonic lysis buffer (0.1% sodium citrate, 0.1% Triton X-100, and 50 μg/ml propidium iodide [PI]). […] Histograms of DNA content were acquired using the CellQuest software. […] For data analysis and correction of the background, noise histograms were processed with the ModFit LT software (Verity, Turramurra, Australia).

[5] = test system: hmNPCs; assay: Western blot of proliferation marker PCNA and survival marker Bcl-2; conditions: 100 µM antagonist, 2 times during the 2 weeks proliferation period, before 1 µM UTP
Description: as §1
In order to prepare protein extracts, hmNPCs were collected, washed with ice-cold PBS and lysed in buffer [10 mM HEPES-KOH (pH 7.9), 10 mM KCI, 1.5 mM MgCl2, 0.1% NP-40], supplemented with protease inhibitor cocktail (Roche). After a brief centrifugation at 4°C/10 000×g, protein concentrations and protein yield from extracts were determined using the Bradford method (Bio-Rad, Hercules, CA, USA). To preserve the phosphorylation state of proteins, extracts for the MAPK experiment were obtained using the PhosphoSafe™ extraction reagent containing phophatase inhibitors (Novagen). […] The chemiluminescence was quantified using the AIDA, two-dimensional densitometry software (Raytest lsotopenmeb, Straubenhardt, Germany). […]

[6] = test system: hmNPCs; assay: Dopaminergic differentiation: TH protein expression by Western blot; conditions: pre-treatment with 100 µM antagonist; UTP 1 µM in expansion, 100 µM in differentiation
[7] = test system: hmNPCs; assay: as above; conditions: for expression of TH, pre-treatment before UTP: 10 µM pre-treatment, 100 µM UTP, one week of differentiation
Description: as §1, §2
(§3) In order to prepare protein extracts, hmNPCs were collected, washed with ice-cold PBS and lysed in buffer [10 mM HEPES-KOH (pH 7.9), 10 mM KCI, 1.5 mM MgCl2, 0.1% NP-40], supplemented with protease inhibitor cocktail (Roche). After a brief centrifugation at 4°C/10 000×g, protein concentrations and protein yield from extracts were determined using the Bradford method (Bio-Rad, Hercules, CA, USA). To preserve the phosphorylation state of proteins, extracts for the MAPK experiment were obtained using the PhosphoSafe™ extraction reagent containing phophatase inhibitors (Novagen). […] Membranes were blocked with 5% (wt/vol) nonfat dry milk in PBS-T (PBS, 0.1% (vol/vol) Tween 20) for 2 h at room temperature and subsequently incubated with the desired primary antibody (diluted in PBS containing 5% non-fat milk and 0.1% Tween 20) overnight at 4 °C with gentle agitation. The membrane was incubated with horseradish peroxidase-coupled secondary antibody for 1 h at room temperature. Chemiluminescence detection was performed by incubating the membranes with SuperSignal-Dura substrate (Pierce Biotechnology, Rockford, U.S.A) followed by analysis on a CCD cooling camera (Fuji LAS-1000plus). The chemiluminescence was quantified using the AIDA, two-dimensional densitometry software (Raytest lsotopenmeb, Straubenhardt, Germany).

[8] = test system: ERK1/2; assay: ERK1/2 (MAPK) phosphorylation by Western blot; conditions: for expression of phosphorylated ERK1/2, pre-treatment before UTP: 10 µM pre-treatment, 100 µM UTP, one week of differentiation
Description: as §1, §2
as §3, with “Chemiluminescence detection was performed by incubating the membranes with SuperSignal-Dura substrate (Pierce Biotechnology, Rockford, U.S.A) followed by analysis on a CCD cooling camera (Fuji LAS-1000plus).” left out

[9] = 10 µM antagonist 30 min before 100 µM UTP

How did the “number of living cells” value ([1]; 100 µM each, 2 weeks in expansion media, on coapplication ADP 30 min before UTP, 20160 min) turn out when Nc1ncnc2c1ncn2[C@@H]1O[C@H](COP(=O)(O)OP(=O)(O)O)[C@@H](O)[C@H]1O [ADP, adenosine diphosphate] was run?
The value was 4 ± 0.5%.

And the Ki67-positive cells [2]?
Its Ki67-positive cells is “strong reduction”.

And the activity at 100 µM ([3]; Homo sapiens, 168 h, 100 µM each, once, only during the differentiation period of one week, read-out: number of TH-positive (dopaminergic) cells as compared to control)?
The activity at 100 µM was 11 ± 3%.

What about the Sub-G1 [4] of the same compound?
The Sub-G1 was 0.54%.

What about the G0/G1 [4] of the same compound?
Its G0/G1 is 84.64 ± 0.41%.

And the G2/M [4]?
Its G2/M is 3.72 ± 0.20%.

And the S [4]?
The S was 11.63 ± 0.2%.

Which results are given for Nc1ncnc2c1ncn2[C@@H]1O[C@H](COP(=O)(O)OP(O)(O)=S)[C@@H](O)[C@H]1O [ADPβS]?
Ki67-positive cells [2]: strong reduction; Sub-G1 [4]: 0.82%; G0/G1 [4]: 84.21 ± 0.06%; G2/M [4]: 3.61 ± 0.01%; S [4]: 12.17 ± 0.05%

Which results are given for Nc1ncnc2c1ncn2[C@@H]1O[C@H](COP(=O)(O)OP(=O)(O)OP(=O)(O)O)[C@@H](O)[C@H]1O [ATP, adenosine triphosphate]?
Ki67-positive cells [2]: strong reduction; Sub-G1 [4]: 0.56%; G0/G1 [4]: 91.69 ± 1.19%; G2/M [4]: 1.42 ± 0.11%; S [4]: 6.89 ± 1.17%

Which “PCNA expression, antagonist before UTP” value [5] does the source give for Cc1nc(N=Nc2ccc(S(=O)(=O)O)cc2S(=O)(=O)O)c(COP(=O)(O)O)c(C=O)c1O [PPADS, Pyridoxal-phosphate-6-azophenyl-2',4'-disulphonic acid] here?
Its value is “reduced the PCNA expression to control levels”.

What about the “block of the anti-proliferative effects of ATP, ADP and ADPβS” value [4] of the same compound?
The value was “failed to block”.

And the “TH expression increase by UTP, antagonist pre-treatment” value [6]?
Its value is “completely blocked”.

N#CC(=C(/N)Sc1ccccc1N)/C(C#N)=C(\N)Sc1ccccc1N [U0126] was tested. Which “proliferation of hmNPCs” value ([1]; data not shown) did it give?
Its value is “reduced”.

And the “expression of TH, pre-treatment before UTP” value [7]?
Its value is “remained at basal levels”.

What about the “UTP-induced phosphorylation of ERK1/2, inhibitor pretreatment” value ([8]; 10 µM inhibitor for 15 min before 1 µM UTP) of the same compound?
The value was “abrogated”.

And the “expression of phosphorylated ERK1/2, pre-treatment before UTP” value [8]?
Its value is “remained at basal levels”.

For O=c1ccn([C@@H]2O[C@H](COP(=O)(O)OP(=O)(O)O)[C@@H](O)[C@H]2O)c(=O)[nH]1 [UDP, uridine 5'-diphosphate], which TH protein levels ([7]; 100 µM during the differentiation period) is on record?
Its TH protein levels is “no increase”.

And the activity at 1 µM ([7]; Homo sapiens, 1 µM during the differentiation period, read-out: TH expression in immunoblots)?
The activity at 1 µM was 194 ± 7%.

What about the activity at 10 µM ([7]; Homo sapiens, 10 µM during the differentiation period, read-out: TH expression in immunoblots) of the same compound?
The activity at 10 µM was 180 ± 8%.

Cc1ccc(C(=O)Nc2ccc(S(=O)(=O)O)c3cc(S(=O)(=O)O)cc(S(=O)(=O)O)c23)cc1NC(=O)c1cccc(NC(=O)Nc2cccc(C(=O)Nc3cc(C(=O)Nc4ccc(S(=O)(=O)O)c5cc(S(=O)(=O)O)cc(S(=O)(=O)O)c45)ccc3C)c2)c1 [suramin] was tested. Which “number of TH-positive cells, antagonist before UTP” value [3, 9] did it give?
Its value is “reduced”.

What about the “TH protein content, antagonist before UTP” value [7, 9] of the same compound?
Its value is “decreased”.

And the “expression of TH, pre-treatment before UTP” value [7]?
The value was “remained at basal levels”.

And the “expression of phosphorylated ERK1/2, pre-treatment before UTP” value [8]?
Its value is “remained at basal levels”.

And the “block of the anti-proliferative effects of ATP, ADP and ADPβS” value [4]?
Its value is “failed to block”.
